Legend:
[1] = test system: tumor inflammation-related adverse effects; details: preliminary data; confirmed PR and SD observed in patients given prophylaxis
tumor cells = details: preclinically; increased intratumoral T-cell infiltration and activation, T-cell-mediated tumor cell killing, PD-L1/PD-1 upregulation; cited from earlier work
intratumoral T cells = experiment: Biomarker analysis of on-treatment tumor biopsies; format: in vivo, human
Experimental: (§1) Methods: In 2 ongoing dose-escalation phase I studies, CEA-TCB is given as monotherapy IV QW (S1) or in combination (QW) with atezolizumab 1200 mg Q3W (S2) in patients with advanced CEA positive (≥20% of tumor cells expressing moderate or high) solid tumors. In S1, 80 patients (70 CRC) were treated at dose levels of 0.05-600 mg; in S2, 45 patients (35 CRC) at 5-160 mg (data cut-off 3 Mar. 2017). In addition biomarker analysis and PK assays were conducted.

[2] = parameters: species or system human; details: in vivo
Experimental: as §1

[3] = test system: advanced CEA positive solid tumors; format: in vivo, human
Experimental: In S1, 80 patients (70 CRC) were treated at dose levels of 0.05-600 mg; in S2, 45 patients (35 CRC) at 5-160 mg (data cut-off 3 Mar. 2017). In addition biomarker analysis and PK assays were conducted.

IL-6 = experiment: Biomarker analysis: IL-6 after administration; format: in vivo, human; details: most patients; after the first administration
Experimental: as §1

Molecule | effect of prophylactic steroid doses on anti-tumor activity of CEA-TCB monotherapy or combination with atezolizumab [1] | preclinical antitumor activity (tumor cells) | increase in Ki67+ T cells as compared to baseline (intratumoral T cells; S1, doses ≥60 mg, OT biopsies, P=0.035, without dose-dependence) [fold] | intratumoral CD8 T cells (intratumoral T cells; on-treatment) | effect of ADA on drug clearance ([2]; human) | PK linearity [2] | tumor reduction of −10% to −30% (stable disease), share of patients ([3]; S1 monotherapy, doses ≥60 mg, MSS CRC patients, 4 patients) [%] | confirmed partial response (PR; RECIST v1.1), share of CRC patients ([3]; S1 monotherapy, doses ≥60 mg, two of 31 evaluable CRC patients, both MSS) [%] | metabolic PR (FDG PET; EORTC criteria), share of CRC patients ([3]; S1 monotherapy, weeks 4-6, 9 patients) [%] | MTD (maximum tolerated dose) ([3]; human, in vivo, iv) [mg] | patients with dose limiting toxicities (DLTs) ([3]; in vivo) | related adverse event: diarrhea ([3]; in vivo) [%] | related adverse event: infusion-related reactions (IRRs) ([3]; in vivo) [%] | related adverse event: pyrexia ([3]; in vivo) [%] | antitumor activity in advanced CRC ([3]; monotherapy, during dose escalation) | IL-6 change (IL-6)
C[C@]12C=CC(=O)C=C1CC[C@@H]1[C@@H]2C(=O)C[C@@]2(C)[C@H]1CC[C@]2(O)C(=O)CO [prednisone] | did not impair the anti-tumor activity | – | – | – | – | – | – | – | – | – | – | – | – | – | – | –
CEA-TCB: novel T-cell bispecific antibody targeting CEA on tumor cells and CD3 on T cells; polypeptides of SEQ ID NO: 25-28 | – | potent antitumor activity | 3.6 | On-treatment increases | ADA increase CEA-TCB drug clearance | almost linear PK | 13 | 6 | 29 | < 600 | Five | 40 | 55 | 58 | Evidence of antitumor activity | increases in IL-6

Reference: US20200199230A1, “TREATMENT METHOD” (Hoffmann-La Roche Inc., priority 2017, published 2020)
